Legend:
[1] = target: T1, h-GABA-A α5β3γ2 (Homo sapiens (Human), UniProt P18507+P31644); test: [3H]flumazenil competition binding assay, membranes of HEK293 cells expressing human GABAA receptors; conditions: displacement of [3H]flumazenil 0.5 nM, HEK293 cells expressing human receptors, mean of two determinations; read-out: Ki h-GABA-A α5β3γ2
In short: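 Membranes were prepared from HEK293 cells with transient human α5β3γ2 expression and assayed in Krebs-tris, pH 7.5. Bound radioactivity measured on filters by liquid scintillation.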

[2] = target: T1, h-GABA-A α5β3γ2; test: Two-electrode voltage clamp electrophysiology in Xenopus oocytes expressing GABAA receptors, modulation of GABA EC20 current; format: cell-based; conditions: Xenopus oocytes; for Efficacy (GABA) %: % modulation of GABA EC20 = 100*(Fold increase−1); for Fold increase h-GABA-A α5β3γ2 oocyte: GABA EC20, test compound at approx. 30 fold its Ki
In short: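 Values are % modulation of an EC20 GABA response, derived point by point from the ratio of compound-exposed versus control current traces (extremum taken, 100×(fold−1)). Recordings used oocytes injected with human α5, β3, γ2 mRNA, clamped at −80 mV at room temperature, at least 3 oocytes each.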

Row | SMILES | Ki [1] [nM] | Efficacy (GABA) % [2] [%] | Fold increase h-GABA-A α5β3γ2 oocyte [2]
1 | COc1ccc(-c2noc(C)c2COc2ccc(C(=O)NC3CCOCC3)cn2)cn1 [Example 137, 6-((3-(6-methoxypyridin-3-yl)-5-methylisoxazol-4-yl)methoxy)-N-tetrahydropyran-4-yl-pyridine-3-carboxamide] | 25.4 | 55 | 1.55
2 | COc1ccc(-c2noc(C)c2COc2ccc(C(=O)NC(C)C)cn2)cn1 [Example 138, N-isopropyl-6-((3-(6-methoxypyridin-3-yl)-5-methylisoxazol-4-yl)methoxy)pyridine-3-carboxamide] | 93.8 | 46 | 1.46
3 | CCC[C@@H](CO)NC(=O)c1ccc(OCc2c(-c3ccc(OC)nc3)noc2C)nc1 [Example 139, (S)—N-(1-hydroxypentan-2-yl)-6-((3-(6-methoxypyridin-3-yl)-5-methylisoxazol-4-yl)methoxy)pyridine-3-carboxamide] | 19.4 | 152 | 2.52
4 | COc1ccc(-c2noc(C)c2COc2ccc(C(=O)N3CCS(=O)(=O)CC3)cn2)cn1 [Example 140, (1,1-dioxidothiomorpholino)(6-((3-(6-methoxypyridin-3-yl)-5-methylisoxazol-4-yl)methoxy)pyridin-3-yl)methanone] | 56 | 13 | 1.13
5 | CCC[C@@H](CO)NC(=O)c1ccc(OCc2c(-c3ccc(N(C)C)nc3)noc2C)nc1 [Example 141, (S)-6-((3-(6-(dimethylamino)pyridin-3-yl)-5-methylisoxazol-4-yl)methoxy)-N-(1-hydroxypentan-2-yl)nicotinamide] | 49.5 | 243 | 3.43
6 | Cc1ncc(-c2noc(C)c2COc2ccc(C(=O)NC3CCOCC3)cn2)cc1F [Example 143, 6-((3-(5-fluoro-6-methyl-3-pyridyl)-5-methyl-isoxazol-4-yl)methoxy)-N-tetrahydropyran-4-yl-pyridine-3-carboxamide] | 14.5 | 20 | 1.2
7 | Cc1ncc(-c2noc(C)c2COc2ccc(C(=O)NC(C)C)cn2)cc1F [Example 144, 6((3-(5-fluoro-6-methyl-3-pyridyl)-5-methyl-isoxazol-4-yl)methoxy)-N-isopropyl-pyridine-3-carboxamide] | 13.6 | 15 | 1.15
8 | CCC[C@@H](CO)NC(=O)c1ccc(OCc2c(-c3cnc(C)c(F)c3)noc2C)nc1 [Example 145, 6-((3-(5-fluoro-6-methyl-3-pyridyl)-5-methyl-isoxazol-4-yl)methoxy)-N-((1S)-1-(hydroxymethyl)butyl)pyridine-3-carboxamide] | 29 | 144 | 2.44
9 | Cc1ccc(-c2noc(C)c2COc2ccc(C(=O)N[C@H]3CC[C@@](C)(O)CC3)nn2)cn1 [Example 148, N-((1s,4s)-4-hydroxy-4-methylcyclohexyl)-6-((5-methyl-3-(6-methylpyridin-3-yl)isoxazol-4-yl)methoxy)pyridazine-3-carboxamide] | 13.8 | 77 | 1.77
10 | Cc1ccc(-c2noc(C)c2COc2ccc(C(=O)N3CC4(C3)CC(F)(F)C4)nn2)cn1 [Example 155, (6,6-difluoro-2-azaspiro[3.3]heptan-2-yl)(6-((5-methyl-3-(6-methylpyridin-3-yl)isoxazol-4-yl)methoxy)pyridazin-3-yl)methanone] | 15.4 | 46 | 1.46
11 | Cc1ccc(-c2noc(C)c2COc2ccc(C(=O)N3C4COCC3C4)nn2)cn1 [Example 157, 3-oxa-6-azabicyclo[3.1.1]heptan-6-yl(6-((5-methyl-3-(6-methylpyridin-3-yl)isoxazol-4-yl)methoxy)pyridazin-3-yl)methanone] | 6 | 76 | 1.76
12 | CO[C@H]1CC[C@@H](NC(=O)c2ccc(OCc3c(-c4ccc(C)nc4)noc3C)nn2)CC1 [Example 158, cis-N-(4-methoxycyclohexyl)-6-((5-methyl-3-(6-methylpyridin-3-yl)isoxazol-4-yl)methoxy)pyridazine-3-carboxamide] | 18.2 | 79 | 1.79
13 | Cc1onc(-c2ccc(Cl)nc2)c1COc1ccc(C(=O)NC2CCOCC2)nn1 [Example 159, 6-((3-(6-chloropyridin-3-yl)-5-methylisoxazol-4-yl)methoxy)-N-(tetrahydropyran-4-yl)pyridazine-3-carboxamide] | 23.7 | 55 | 1.55
14 | CO[C@H]1C[C@@H](NC(=O)c2ccc(OCc3c(-c4ccc(C)nc4)noc3C)nn2)C1 [Example 164, cis-N-(3-methoxycyclobutyl)-6-((5-methyl-3-(6-methyl-3-pyridyl)isoxazol-4-yl)methoxy)pyridazine-3-carboxamide] | 11.5 | 95 | 1.95
15 | Cc1ccc(-c2noc(C)c2COc2ccc(C(=O)NC3CC4(C3)CC(F)(F)C4)nn2)cn1 [Example 167, N-(6,6-difluorospiro[3.3]heptan-2-yl)-6-((5-methyl-3-(6-methylpyridin-3-yl)isoxazol-4-yl)methoxy)pyridazine-3-carboxamide] | 19.1 | 64 | 1.64
16 | Cc1ccc(-c2noc(CF)c2COc2ccc(C(=O)NC3CCOCC3)nn2)cn1 [Example 168, 6-((5-(fluoromethyl)-3-(6-methylpyridin-3-yl)isoxazol-4-yl)methoxy)-N-(tetrahydropyran-4-yl)pyridazine-3-carboxamide] | 32.4 | 102 | 2.02

Continued, values first:

Row | Ki [1] [nM] | Efficacy (GABA) % [2] [%] | Fold increase h-GABA-A α5β3γ2 oocyte [2] | SMILES
17 | 4.7 | 44 | 1.44 | COc1cc(OCc2c(-c3ccc(C)nc3)noc2C)ncc1C(=O)NC1CCOCC1 [Example 142, 4-methoxy-6-((5-methyl-3-(6-methylpyridin-3-yl)isoxazol-4-yl)methoxy)-N-(tetrahydropyran-4-yl)nicotinamide]
18 | 10 | 78 | 1.78 | Cc1ccc(-c2noc(C)c2COc2ccc(C(=O)N[C@H]3CC[C@](C)(O)CC3)nn2)cn1 [Example 146]
19 | 9.6 | 48 | 1.48 | Cc1ccc(-c2noc(C)c2COc2ccc(C(=O)NC(C)(CO)CO)nn2)cn1 [Example 147, N-(1,3-dihydroxy-2-methylpropan-2-yl)-6-((5-methyl-3-(6-methylpyridin-3-yl)isoxazol-4-yl)methoxy)pyridazine-3-carboxamide]
20 | 5.5 | 84 | 1.84 | Cc1ccc(-c2noc(C)c2COc2ccc(C(=O)N[C@H]3CC[C@H](O)CC3)nn2)cn1 [Example 153, trans-N-(4-hydroxycyclohexyl)-6-((5-methyl-3-(6-methylpyridin-3-yl)isoxazol-4-yl)methoxy)pyridazine-3-carboxamide]
21 | 10 | 97 | 1.97 | CO[C@H]1CC[C@H](NC(=O)c2ccc(OCc3c(-c4ccc(C)nc4)noc3C)nn2)CC1 [Example 154, trans-N-(4-methoxycyclohexyl)-6-((5-methyl-3-(6-methylpyridin-3-yl)isoxazol-4-yl)methoxy)pyridazine-3-carboxamide]
22 | 7.8 | 98 | 1.98 | Cc1ccc(-c2noc(C)c2COc2ccc(C(=O)NC3CCCC(O)C3)nn2)cn1 (stereo not drawn) [Example 156, N-(3-hydroxycyclohexyl)-6-((5-methyl-3-(6-methylpyridin-3-yl)isoxazol-4-yl)methoxy)pyridazine-3-carboxamide]
23 | 8 | 60 | 1.6 | Cc1onc(-c2ccc(Cl)nc2)c1COc1ccc(C(=O)NC2(C)COC2)nn1 [Example 161, 6-((3-(6-chloropyridin-3-yl)-5-methylisoxazol-4-yl)methoxy)-N-(3-methyloxetan-3-yl)pyridazine-3-carboxamide]
24 | 11.2 | 37 | 1.37 | Cc1onc(-c2ccc(Cl)nc2)c1COc1ccc(C(=O)NC2CC3(COC3)C2)nn1 [Example 162, 6-((3-(6-chloropyridin-3-yl)-5-methylisoxazol-4-yl)methoxy)-N-(2-oxaspiro[3.3]heptan-6-yl)pyridazine-3-carboxamide]
25 | 8.6 | 98 | 1.98 | CO[C@H]1C[C@H](NC(=O)c2ccc(OCc3c(-c4ccc(C)nc4)noc3C)nn2)C1 [Example 163, trans-N-(3-methoxycyclobutyl)-6-((5-methyl-3-(6-methyl-3-pyridyl)isoxazol-4-yl)methoxy)pyridazine-3-carboxamide]
26 | 2.6 | 174 | 2.74 | Cc1ccc(-c2noc(C3CC3)c2COc2ccc(C(=O)NC3CCOCC3)nn2)nn1 [Example 165, 6-((5-cyclopropyl-3-(6-methylpyridazin-3-yl)isoxazol-4-yl)methoxy)-N-(tetrahydropyran-4-yl)pyridazine-3-carboxamide]

Reference: US20240279218A1 (Hoffmann-La Roche Inc., priority 2016, published 2024)
